Measured values reported in PMC12670118 (Chemical Science, 2025).

Experiments:
[1] = tested on: HeLa cells; test: MTT antiproliferative assay, HeLa; format: cell-based; conditions: read-out: Cytotoxicity IC50, 72 h
[2] = tested on: MDA-MB-231 cells; test: MTT antiproliferative assay, MDA-MB-231; format: cell-based, human; conditions: read-out: Cytotoxicity IC50, MDA-MB-231, 72 h
[3] = tested on: p-STING; test: Immunohistochemistry of primary tumor tissue; format: in vivo, mouse; conditions: 5 mg kg^−1 intratumoral, IHC
[4] = tested on: MCF-10A cells; test: MTT antiproliferative assay, MCF-10A; format: cell-based, human; conditions: read-out: Cytotoxicity IC50, 72 h
[5] = tested on: 4T1 cells; test: MTT antiproliferative assay, 4T1; format: cell-based, mouse; conditions: read-out: Cytotoxicity IC50, 4T1, 72 h
[6] = tested on: MCF-7 cells; test: MTT antiproliferative assay, MCF-7; format: cell-based, human; conditions: read-out: Cytotoxicity IC50, MCF-7, 72 h

For `N.N.[Cl][Pt][Cl]` [Cisplatin], the IC50 [1] was 8.35 ± 0.86 µM, the IC50 [2] was 20.2 ± 5.6 µM and the “Expression of p-STING on primary tumors” value [3] was “can't activate the STING pathway in vivo”. For the same molecule, the IC50 [4] was 15.5 ± 4.33 µM, the IC50 [5] was 25.5 ± 2.52 µM and the IC50 [6] was 18.3 ± 5.74 µM.
